Results on eight molecules are retold here after patent US20220144847A1, “HETEROCYCLIC COMPOUND, PHARMACEUTICAL COMPOSITION COMPRISING SAME, PREPARATION METHOD THEREFOR, AND USE THEREOF” (Sichuan Kelun-Biotech Biopharmaceutical Co., Ltd., priority 2019, published 2022).

Format in all cases: biochemical
Test [1] deals with RET-V804M (Homo sapiens, UniProt P07949, V804M). The test can be described thus: RET inhibition experiment (HTRF KinEASE-TK kit), mutant RET-V804M. Particulars: for inhibition at 0.1 µM / inhibition at 0.01 µM: read-out: Inhibition rate on RET-V804M; for inhibition at 0.01 µM: 10 nM (Table 2); for IC50: read-out: The IC50 (nM) for inhibiting V804M. In a few lines:
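Enzyme was pre-incubated with compound at room temperature for 30 min, then substrate and ATP were added for a 40 min reaction. HTRF signal was read after 45 min with TK antibody-cryptate and streptavidin-XL665. IC50 came from a four-parameter fit of percent inhibition against DMSO and no-enzyme controls.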
Background: TR-FRET usually uses a lanthanide donor and a delayed reading to cut background.

For test [2], the target named is VEGFR2 (Homo sapiens, UniProt P35968). The test is described as follows: VEGFR2 inhibition experiment (HTRF KinEASE-TK kit). In a few lines:
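HTRF KinEASE-TK format: enzyme and compound were preincubated 30 min at room temperature, then substrate and ATP added for 40 min, followed by cryptate antibody/streptavidin-XL665 detection for 45 min. Inhibition was normalised to DMSO and no-enzyme controls; IC50 from a four-parameter fit.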

In test [3] the target is RET-M918T (Homo sapiens, UniProt P07949, M918T). The test is described as follows: RET inhibition experiment (HTRF KinEASE-TK kit), mutant RET-M918T. Particulars: for inhibition at 0.1 µM: read-out: Inhibition rate on RET-M918T. As to the method:
(§1) Experimental method: […] After incubation at room temperature for 40 min, TK antibody-cryptate and streptavidin-XL665 were added, and the test was performed after incubation at room temperature for 45 min. With the solvent group (DMSO) as the negative control and the buffer group (without RET enzyme) as the blank control, the relative inhibitory activity percentages (i.e., inhibition rates) of different concentrations of the compounds were computed as per the following formula: […] The relative inhibitory activity percentages of different concentrations of the compounds were plotted with respect to the compound concentrations, and the curve was fitted according to a four-parameter model to compute the IC50 value as per the following formula: y=min+(max-min)/(1+(x/IC50)^(-Hillslope)) where y is the relative inhibitory activity percentage, max is the maximum value of the fitted curve, min is the minimum value of the fitted curve, x is the logarithmic concentration of the compound, and Hillslope is the slope of the curve.

The target in test [4] is T1, RET-CCDC6 (Homo sapiens, UniProt P07949).
T1 construct: CCDC6 fusion partner (Q16204 for human); the other entry of the earlier key: CCDC6 (Q16204, Coiled-coil domain-containing protein 6)
T1 sequence (P07949 with tags, fused parts or gaps): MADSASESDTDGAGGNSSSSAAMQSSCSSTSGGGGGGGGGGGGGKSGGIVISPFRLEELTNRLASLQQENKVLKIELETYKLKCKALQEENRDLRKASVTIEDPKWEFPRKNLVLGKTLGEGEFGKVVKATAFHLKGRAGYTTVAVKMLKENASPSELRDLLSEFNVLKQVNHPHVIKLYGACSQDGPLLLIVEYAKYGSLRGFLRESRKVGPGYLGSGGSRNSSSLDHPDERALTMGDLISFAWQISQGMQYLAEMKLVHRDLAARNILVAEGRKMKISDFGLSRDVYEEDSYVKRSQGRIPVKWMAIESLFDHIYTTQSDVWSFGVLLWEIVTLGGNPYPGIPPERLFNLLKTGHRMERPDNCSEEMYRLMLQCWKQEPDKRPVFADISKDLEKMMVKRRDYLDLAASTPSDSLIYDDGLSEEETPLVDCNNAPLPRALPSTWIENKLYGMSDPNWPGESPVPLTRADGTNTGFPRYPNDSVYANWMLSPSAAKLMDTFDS
The test is described as follows: RET inhibition experiment (HTRF KinEASE-TK kit), fusion-type RET enzyme. The following applies: read-out: The IC50 (nM) for inhibiting RET-CCDC6. As to the method: as §1

[5] abbreviates: read-out: Inhibition rate on VEGFR2.
The mark [6] stands for this setting: 100 nM, read-out: Inhibition rate on VEGFR2.
[7] abbreviates: compound concentration 100 nM (Table 1).

Read-outs that look alike come from different tables or passages of the source.

RET-M918T, sequence (P07949 29-1114 M918T): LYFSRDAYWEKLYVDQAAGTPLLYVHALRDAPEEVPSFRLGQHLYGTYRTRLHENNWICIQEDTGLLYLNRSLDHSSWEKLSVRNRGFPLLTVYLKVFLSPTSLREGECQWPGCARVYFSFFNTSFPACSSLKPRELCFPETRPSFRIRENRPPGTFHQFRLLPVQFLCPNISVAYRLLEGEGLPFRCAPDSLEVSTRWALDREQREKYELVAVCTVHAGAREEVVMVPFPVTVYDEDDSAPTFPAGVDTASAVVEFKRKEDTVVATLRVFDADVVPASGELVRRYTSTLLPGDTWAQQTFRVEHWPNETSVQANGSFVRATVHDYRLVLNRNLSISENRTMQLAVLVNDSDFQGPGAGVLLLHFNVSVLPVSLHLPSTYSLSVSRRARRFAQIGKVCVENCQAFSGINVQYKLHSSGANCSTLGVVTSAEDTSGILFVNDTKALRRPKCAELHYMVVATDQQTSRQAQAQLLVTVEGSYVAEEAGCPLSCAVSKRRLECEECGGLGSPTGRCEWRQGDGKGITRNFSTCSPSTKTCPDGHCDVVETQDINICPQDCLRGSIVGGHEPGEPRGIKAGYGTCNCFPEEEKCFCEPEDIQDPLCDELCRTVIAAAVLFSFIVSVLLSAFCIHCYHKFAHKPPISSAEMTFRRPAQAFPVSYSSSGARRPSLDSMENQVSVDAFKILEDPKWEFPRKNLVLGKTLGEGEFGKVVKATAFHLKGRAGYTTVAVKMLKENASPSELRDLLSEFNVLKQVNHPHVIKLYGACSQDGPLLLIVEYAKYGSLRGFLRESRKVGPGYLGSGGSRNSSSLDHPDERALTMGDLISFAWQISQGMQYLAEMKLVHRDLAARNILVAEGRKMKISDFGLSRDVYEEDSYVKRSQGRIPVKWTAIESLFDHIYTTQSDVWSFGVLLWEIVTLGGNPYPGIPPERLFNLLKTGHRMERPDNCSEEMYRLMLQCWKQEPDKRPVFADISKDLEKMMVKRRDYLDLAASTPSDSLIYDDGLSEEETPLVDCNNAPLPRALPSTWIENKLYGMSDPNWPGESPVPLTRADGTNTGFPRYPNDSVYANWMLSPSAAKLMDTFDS
VEGFR2, sequence (P35968 20-1356, species assumed): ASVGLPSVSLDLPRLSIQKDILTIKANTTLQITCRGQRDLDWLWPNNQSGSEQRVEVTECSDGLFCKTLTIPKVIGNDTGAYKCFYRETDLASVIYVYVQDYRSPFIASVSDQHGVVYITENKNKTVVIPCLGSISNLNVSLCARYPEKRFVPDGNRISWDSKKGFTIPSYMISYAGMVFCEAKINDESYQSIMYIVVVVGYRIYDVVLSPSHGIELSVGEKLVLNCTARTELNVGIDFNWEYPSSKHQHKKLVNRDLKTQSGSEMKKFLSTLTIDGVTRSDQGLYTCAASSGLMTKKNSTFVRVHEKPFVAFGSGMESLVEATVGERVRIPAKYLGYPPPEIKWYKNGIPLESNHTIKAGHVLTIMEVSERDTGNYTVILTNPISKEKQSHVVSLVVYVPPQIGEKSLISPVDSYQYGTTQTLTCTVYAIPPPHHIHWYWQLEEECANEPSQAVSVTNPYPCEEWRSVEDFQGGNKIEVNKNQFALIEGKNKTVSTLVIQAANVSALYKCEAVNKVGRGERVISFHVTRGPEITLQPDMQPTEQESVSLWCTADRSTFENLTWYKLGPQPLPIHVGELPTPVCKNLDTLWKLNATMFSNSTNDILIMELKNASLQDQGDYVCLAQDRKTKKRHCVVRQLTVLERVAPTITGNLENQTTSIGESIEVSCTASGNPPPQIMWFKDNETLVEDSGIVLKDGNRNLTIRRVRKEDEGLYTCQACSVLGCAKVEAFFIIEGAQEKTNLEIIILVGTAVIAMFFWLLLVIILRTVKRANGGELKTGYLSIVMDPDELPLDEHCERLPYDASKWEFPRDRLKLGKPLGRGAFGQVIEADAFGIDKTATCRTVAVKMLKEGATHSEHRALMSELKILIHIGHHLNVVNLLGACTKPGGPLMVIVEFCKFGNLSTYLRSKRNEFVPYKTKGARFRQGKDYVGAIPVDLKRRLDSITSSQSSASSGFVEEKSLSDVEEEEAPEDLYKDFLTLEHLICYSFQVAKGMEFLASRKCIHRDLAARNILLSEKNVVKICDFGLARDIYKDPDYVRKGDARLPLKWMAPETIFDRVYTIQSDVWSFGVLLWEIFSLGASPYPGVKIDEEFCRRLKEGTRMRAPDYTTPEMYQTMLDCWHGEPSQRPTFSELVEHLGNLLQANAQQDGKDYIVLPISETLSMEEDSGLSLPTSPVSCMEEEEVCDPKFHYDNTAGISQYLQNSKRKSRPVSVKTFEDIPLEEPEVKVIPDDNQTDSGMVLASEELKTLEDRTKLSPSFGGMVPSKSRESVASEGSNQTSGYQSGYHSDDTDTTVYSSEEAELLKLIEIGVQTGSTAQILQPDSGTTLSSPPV
RET-V804M, sequence (P07949 29-1114 V804M): as the sequence (P07949 29-1114 M918T) above, with V776M, T890M counted along it

With `COc1ccc(CN2C3CC2CN(c2ccc(-c4nc(C)cc(Nc5cc(C)[nH]n5)n4)cn2)C3)cc1` [Compound 2, 2-(6-(6-(4-methoxybenzyl)-3,6-diazabicyclo[3.1.1]heptan-3-yl)pyridin-3-yl)-6-methyl-N-(5-methyl-1H-pyrazol-3-yl)pyrimidin-4-amine], the inhibition (usually the percentage by which the read-out fell short of the control) at 0.1 µM in test [1] turned out to be 93%; in test [2] (setting [5]), 29%; in test [3], 51%.
Consider `Cc1cc(Nc2cc(C)[nH]n2)nc(-c2ccc(N3CC4CC(C3)N4Cc3ccc(Cl)cn3)nc2)n1` [Compound 69, 2-(6-(6-((5-chloropyridin-2-yl)methyl)-3,6-diazabicyclo[3.1.1]heptan-3-yl)pyridin-3-yl)-6-methyl-N-(5-methyl-1H-pyrazol-3-yl)pyrimidin-4-amine], for which the inhibition at 0.01 µM in test [1] was determined as 56%. Further, the inhibition at 0.1 µM in test [2] (setting [6]) was determined as 2%. For the same molecule, the values for the IC50 in test [4] and in test [3] (read-out: The IC50 (nM) for inhibiting the enzyme RET-M918T) were 11 ± 9.65 nM and 8.6 ± 1.46 nM, respectively.
As for `Cc1cc(Nc2cc(C)[nH]n2)nc(-c2ccc(N3CC4CC(C3)N4Cc3ccccc3)nc2)n1` [Compound 1, 2-(6-(6-benzyl-3,6-diazabicyclo[3.1.1]heptan-3-yl)pyridin-3-yl)-6-methyl-N-(5-methyl-1H-pyrazol-3-yl)pyrimidin-4-amine], the results for the inhibition at 0.1 µM in test [1], in test [2] (setting [5]) and in test [3] were 86%, 38% and 33%, respectively.
As for `Cc1cc(Nc2cc(C)[nH]n2)nc(-c2ccc(N3CC4CC(C3)N4Cc3ccc(Cl)nc3)nc2)n1` [Compound 3, 2-(6-(6-((6-chloropyridin-3-yl)methyl)-3,6-diazabicyclo[3.1.1]heptan-3-yl)pyridin-3-yl)-6-methyl-N-(5-methyl-1H-pyrazol-3-yl)pyrimidin-4-amine], the inhibition at 0.1 µM in test [1] (setting [7]) stood at 86%; in test [2] (setting [6]), 14%; in test [3] (setting [7]), 34%.
Consider `COc1ccc(CN2C3CC2CN(c2ccc(-c4nc(C)cc(Nc5cc(C)[nH]n5)n4)cn2)C3)cn1` [Compound 4, 2-(6-(6-((6-methoxypyridin-3-yl)methyl)-3,6-diazabicyclo[3.1.1]heptan-3-yl)pyridin-3-yl)-6-methyl-N-(5-methyl-1H-pyrazol-3-yl)pyrimidin-4-amine], for which the inhibition at 1 µM in test [2] (1000 nM, read-out: Inhibition rate on VEGFR2) was 52%. For the same molecule, the inhibition at 0.1 µM in test [3] (setting [7]) was determined as 69%.
For `Cc1cc(Nc2cc(C)[nH]n2)nc(-c2ccc(N3CC4CC(C3)N4Cc3ccc(-n4nc(C)cc4C)nc3)nc2)n1` [Compound 11, 2-(6-(6-((6-(3,5-dimethyl-1H-pyrazol-1-yl)pyridin-3-yl)methyl)-3,6-diazabicyclo[3.1.1]heptan-3-yl)pyridin-3-yl)-6-methyl-N-(5-methyl-1H-pyrazol-3-yl)pyrimidin-4-amine], the figures for the half-maximal inhibitory concentration (IC50) in test [1] and in test [2] (read-out: IC50 for inhibiting VEGFR2) were 7.22 ± 0.58 nM and 158 ± 25.1 nM, respectively.
For `Cc1cc(Nc2cc(C)[nH]n2)nc(-c2ccc(N3CC4CC(C3)N4Cc3ccc(-n4nccc4C(C)(C)O)nc3)nc2)n1` [Compound 136, 2-(1-(5-((3-(5-(4-methyl-6-((5-methyl-1H-pyrazol-3-yl)-amino)pyrimidin-2-yl)pyridin-2-yl)-3,6-diazabicyclo[3.1.1]heptan-6-yl)methyl)pyridin-2-yl)-1H-pyrazol-5-yl)propan-2-ol], the IC50 (in general, the midpoint of a concentration-inhibition curve) in test [1] came out at 2.35 ± 0.13 nM. Also, in test [2] (30 nM, read-out: Inhibition rate on VEGFR2), the inhibition at 0.03 µM is 18%.
Consider `Cc1cc(Nc2cc(C)[nH]n2)nc(-c2ccc(N3CC4CC(C3)N4C(C)c3ccc(-n4cccn4)nc3)nc2)n1` (single isomer, unassigned) [Compound 125-2], for which the inhibition at 0.01 µM in test [1] came to 82%. Further, the inhibition at 0.3 µM in test [2] (300 nM, read-out: Inhibition rate on VEGFR2) is 63%.
